Reference: the NIST ThermoML archive (doi:10.1016/j.tca.2013.06.040)

What was measured:
[1] = Molar enthalpy of transition or fusion; details: DSC
[2] = DTA
[3] = molar heat capacity at constant pressure; details: 101.33 kPa, Small sample (50 mg) DSC

O=[N+]([O-])[O-].O=[N+]([O-])[O-].[Li+].[Rb+] [lithium rubidium nitrate]
Crystal
Details | Molar enthalpy of transition or fusion [kcal/mol] | Triple point temperature [K]
[1] | 5.31 | –
[2] | – | 460

[3]
Details | molar heat capacity at constant pressure [J/K/mol]
315.6 K, Crystal | 150.8
320.6 K, Crystal | 166.6
325.6 K, Crystal | 171.8
330.6 K, Crystal | 190.8
335.6 K, Crystal | 179.2
340.6 K, Crystal | 184.8
345.6 K, Crystal | 184
350.6 K, Crystal | 200
355.6 K, Crystal | 204
360.6 K, Crystal | 222
365.6 K, Crystal | 222
370.6 K, Crystal | 190.6
375.6 K, Crystal | 206
380.6 K, Crystal | 189
385.6 K, Crystal | 196.4
390.5 K, Crystal | 206
395.5 K, Crystal | 224
400.5 K, Crystal | 191.4
405.5 K, Crystal | 210
410.5 K, Crystal | 195.4
420.5 K, Crystal | 206
425.5 K, Crystal | 224
435.5 K, Crystal | 232
445.5 K, Crystal | 262
460.5 K, Liquid | 374
470.5 K, Liquid | 346
475.5 K, Liquid | 342
480.5 K, Liquid | 364
485.5 K, Liquid | 382
490.5 K, Liquid | 384

O=[N+]([O-])[O-].[Rb+] [rubidium nitrate]
Details | Molar enthalpy of transition or fusion, Crystal 1 [kcal/mol] | Molar enthalpy of transition or fusion, Crystal 2 [kcal/mol] | Molar enthalpy of transition or fusion, Crystal 3 [kcal/mol] | Molar enthalpy of transition or fusion, Crystal 4 [kcal/mol] | Triple point temperature, Crystal 1 [K] | Triple point temperature, Crystal 2 [K] | Triple point temperature, Crystal 3 [K] | Triple point temperature, Crystal 4 [K]
[1] | 1.12 | 0.299 | 0.554 | 0.889 | – | – | – | –
[2] | – | – | – | – | 583 | 555 | 500 | 437

[3]
Details | molar heat capacity at constant pressure [J/K/mol]
325.6 K, Crystal 4 | 99
330.6 K, Crystal 4 | 99.5
335.6 K, Crystal 4 | 101
340.6 K, Crystal 4 | 102
345.6 K, Crystal 4 | 101
350.6 K, Crystal 4 | 101
355.6 K, Crystal 4 | 102
360.6 K, Crystal 4 | 100
365.6 K, Crystal 4 | 104
370.6 K, Crystal 4 | 104
375.6 K, Crystal 4 | 106
380.6 K, Crystal 4 | 107
385.6 K, Crystal 4 | 109
390.6 K, Crystal 4 | 109
395.6 K, Crystal 4 | 110
400.6 K, Crystal 4 | 111
405.6 K, Crystal 4 | 112
410.6 K, Crystal 4 | 113
415.6 K, Crystal 4 | 113
420.6 K, Crystal 4 | 114
425.5 K, Crystal 4 | 123
430.5 K, Crystal 4 | 118
435.5 K, Crystal 4 | 123
440.5 K, Crystal 3 | 833
445.5 K, Crystal 3 | 134
450.5 K, Crystal 3 | 134
455.5 K, Crystal 3 | 135
460.5 K, Crystal 3 | 136
465.5 K, Crystal 3 | 136
470.5 K, Crystal 3 | 138
475.5 K, Crystal 3 | 138
480.5 K, Crystal 3 | 138
485.5 K, Crystal 3 | 138
490.5 K, Crystal 3 | 139
495.5 K, Crystal 3 | 139
500.5 K, Crystal 2 | 303
505.5 K, Crystal 2 | 368
510.5 K, Crystal 2 | 175
515.5 K, Crystal 2 | 132
520.5 K, Crystal 2 | 134
525.5 K, Crystal 2 | 135
530.5 K, Crystal 2 | 136
535.5 K, Crystal 2 | 136
540.5 K, Crystal 2 | 136
545.5 K, Crystal 2 | 137
550.5 K, Crystal 2 | 161
555.5 K, Crystal 1 | 151
560.5 K, Crystal 1 | 399
565.5 K, Crystal 1 | 112
570.5 K, Crystal 1 | 113
575.5 K, Crystal 1 | 111
580.5 K, Crystal 1 | 115
585.5 K, Liquid | 744
590.5 K, Liquid | 249
595.5 K, Liquid | 157
600.5 K, Liquid | 140
605.5 K, Liquid | 138
610.5 K, Liquid | 138
615.5 K, Liquid | 138
620.5 K, Liquid | 137

O=[N+]([O-])[O-].[Li+] [lithium nitrate]
Crystal
Details | Molar enthalpy of transition or fusion [kcal/mol] | Triple point temperature [K]
[1] | 5.86 | –
[2] | – | 525

[3]
Details | molar heat capacity at constant pressure [J/K/mol]
310.7 K, Crystal | 63.7
315.7 K, Crystal | 56.8
320.6 K, Crystal | 117
325.6 K, Crystal | 114
330.6 K, Crystal | 80.3
335.6 K, Crystal | 72.2
340.6 K, Crystal | 63.4
345.6 K, Crystal | 78.2
350.6 K, Crystal | 88.7
355.6 K, Crystal | 83.5
360.6 K, Crystal | 80.8
365.6 K, Crystal | 81.5
370.6 K, Crystal | 75.6
375.6 K, Crystal | 79.1
380.6 K, Crystal | 77.3
385.6 K, Crystal | 80.7
390.6 K, Crystal | 81.1
395.6 K, Crystal | 83.9
400.6 K, Crystal | 87.5
405.5 K, Crystal | 86.4
410.5 K, Crystal | 81.9
415.5 K, Crystal | 90.3
420.5 K, Crystal | 87.1
425.5 K, Crystal | 86.2
430.5 K, Crystal | 91.5
435.6 K, Crystal | 94.4
440.6 K, Crystal | 95.6
445.5 K, Crystal | 88.4
450.5 K, Crystal | 93.6
455.4 K, Crystal | 90.4
460.3 K, Crystal | 93.1
465.4 K, Crystal | 96.3
470.5 K, Crystal | 97.4
475.5 K, Crystal | 91.5
480.6 K, Crystal | 94.5
485.5 K, Crystal | 95.6
490.5 K, Crystal | 99.4
495.5 K, Crystal | 102
500.5 K, Crystal | 98.8
505.5 K, Crystal | 103
510.5 K, Crystal | 110
515.5 K, Crystal | 125
520.5 K, Crystal | 127
535.5 K, Liquid | 114
540.5 K, Liquid | 122
545.5 K, Liquid | 122
550.5 K, Liquid | 125
555.5 K, Liquid | 117
560.5 K, Liquid | 121
570.5 K, Liquid | 122
575.5 K, Liquid | 123
580.5 K, Liquid | 116
585.5 K, Liquid | 121
590.5 K, Liquid | 119
595.5 K, Liquid | 122
600.5 K, Liquid | 119
610.5 K, Liquid | 113
615.5 K, Liquid | 120
620.5 K, Liquid | 110
